Results: PubChem BioAssay AID179 (DTP/NCI, 2004)
Calls of active or inactive are those of the source.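 How the source made its calls: active means compounds giving half or more protection of infected cells from virus-caused growth loss, again on retest; inactive means the rest.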 Where a SMILES comes first, the peptide text is derived from it. [ ]: non-standard residue; d: D form. The star is where a group is joined. NMeF = CN[CH](Cc1ccccc1)C(=O)O; NMeV = CN[CH](C(=O)O)C(C)C; Boc = CC(C)(C)OC(=O)*; OBn = c1ccc(CO*)cc1

Test system: CEM cells HIV-1 protection, formazan growth assay
Experiment: NCI AIDS Antiviral Assay
Settings: for IC50: measured here: growth of uninfected CEM cells
Outline: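 Protection of CEM cells against HIV-1 was scored from cell growth (soluble formazan) across five concentrations, with parallel uninfected cells. Lack of protection may reflect toxicity.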

| SMILES | EC50 [µM] | IC50 [µM] | outcome |
| --- | --- | --- | --- |
| CC1=Cc2cc3[n-]c(cc4nc(cc5[n-]c(cc1n2)cc5C)C(C)=C4CCC(=O)O)c(CCC(=O)O)c3C.[Pd+2] | > 11.7 | 1.02 |  |
| O=c1cc(CN2CCCCC2)[nH]c2c1ccc1nc(CN3CCCCC3)cc(=O)n12 | > 100 | > 100 |  |
| Cc1cc2ccc3c(c2oc1=O)[C@@H](OC(=O)C12CCC(C)(C(=O)O1)C2(C)C)[C@@H](OC(=O)C12CCC(C)(C(=O)O1)C2(C)C)C(C)(C)O3 (stereo partly drawn) | 0.209 | 18.6 |  |
| CC1(C)CNC(=O)C2=C(O1)C(=O)OC2 | > 1260 | > 1260 |  |
| Nc1nc(C[P+](c2ccccc2)(c2ccccc2)c2ccccc2)c(CCCCc2ccccc2)c(=O)[nH]1 | > 200 | 33.1 |  |
| C[N+](C)(C)CC1CCCCCCCCCCC1=O (stereo not drawn) | 60.3 | 148 |  |
| CCOP(=O)(O)Cc1c(Cl)c(Cl)c(CP(=O)(O)OCC)c(Cl)c1Cl | > 200 | 132 |  |
| C[N+](C)(CCCCCC[N+](C)(C)CC(=O)O)CC(=O)O | > 550 | > 550 |  |
| CC1CC(C)C(=O)C(C(=O)CC2CC(=O)NC2=O)C1 (stereo not drawn) | > 200 | > 200 |  |
| O=C(O)C(Oc1ccc2cc(Br)ccc2c1)C(=O)O |  |  | inactive |
| CCOC(=O)NC(=O)c1cn(CCCOC(=O)CCCCCCCCC(=O)OCCCn2cc(C(=O)NC(=O)OCC)c(=O)[nH]c2=O)c(=O)[nH]c1=O |  |  | inactive |
| Nc1nnnc2nc[nH]c12 | > 20 | 0.537 |  |
| CC(=O)OC1C(OCc2cc(=O)oc3c4c(c5c(c23)OC(C)(C)CC5)O[C@@H](C)[C@H](C)[C@@H]4O)OC(CO)C(O)C1O (stereo partly drawn) | > 200 | 43.7 |  |
| COc1ccc([B-]23OCC[N+]2(CNC(=O)C2=C(O)C4(O)C(=O)C5=C(O)c6c(O)cccc6C(C)(O)C5CC4C(N(C)C)C2=O)CCO3)cc1 (stereo not drawn) | > 100 | 47.9 |  |
| CC(C)[C@@H](C)/C=C/[C@@H](C)C1CC2C3=CC=C4C[C@@H](OC5OCC(O)C6OC(=O)C(=O)OC56)CC[C@]4(C)C3CC[C@]2(C)C1 (stereo partly drawn) | > 200 | 11 |  |
| CCCCNC=C1C(=O)Nc2ccccc2NC1=O | > 200 | > 200 |  |
| Cn1c2ccccc2c(=NNc2ccc(S(N)(=O)=O)cc2)c2ccccc21 | > 200 | 17.4 |  |
| Cc1ccc(C)c(C(=O)CC2OC(O)C(Cl)C2Cl)c1 (stereo not drawn) | > 117 | 64.6 |  |
| O=c1c2ccccc2c2c3c1cccc3c1cccc3c(=O)c4ccccc4c2c31 | > 7.08 | > 7.08 |  |
| N#C/C(=C\n1c(=S)[nH]c2ccc([N+](=O)[O-])cc21)c1cccc(Cl)c1 | > 200 | 120 |  |
| CN=C1Nc2ccccc2C(=S)N2CSC[C@@H]12 | > 200 | > 200 |  |
| COc1cc2c3cc1Oc1c(O)c(OC)cc4c1C(Cc1ccc(O)c(c1)Oc1ccc(cc1)CC3N(C)CC2)N(C)CC4 (stereo not drawn) |  |  | inactive |

| SMILES | EC50 [µM] | IC50 [µM] | outcome |
| --- | --- | --- | --- |
| CC(=O)Nc1ccc(S(=O)(=O)c2ccc(NC(C)=O)cc2)cc1 | > 200 | > 200 |  |
| Cc1ccnc2c1C(=O)C(=O)C=C2N1CCC(C)CC1 |  |  | inactive |
| Nc1ccc2c(c1)NC(=O)[C@@H]1CCCN1C2=O | > 200 | > 200 |  |
| O=C1C(=Cc2cccc(O)c2)N=C(c2ccccc2)N1n1c(-c2ccccc2)nc2ccccc2c1=O | > 200 | 8.51 |  |
| CC1(C)OC2OC(C(O)COC(=O)c3ccccc3)C(F)C2O1 (stereo not drawn) | > 209 | > 209 |  |
| CN1CCN(CCCN2CC(=O)N3Cc4ccccc4CN3C(=O)C2)CC1 | > 200 | > 200 |  |
| CCNC(=S)N/N=C(\C)c1cccc(C)n1 | > 2 | 1.1 |  |
| COc1ccc2nc3cc(Cl)ccc3c(NCCCNCCCNc3c4ccc(Cl)cc4nc4ccc(OC)cc34)c2c1 | > 2 | 0.0148 |  |
| CC1CN=C(CCc2ccc(NC(=O)c3ccc(C(=O)Nc4ccc(CCC5=NCC(C)N5)cc4)cc3)cc2)N1 (stereo not drawn) | > 200 | 45.7 |  |
| Nc1ccn(CC(=O)NCCCO)c(=O)n1 | > 200 | > 200 |  |
| O=c1c2cc([N+](=O)[O-])ccc2n2n1CCCCC2 | > 200 | > 200 |  |
| CCCC=NCCOC(=S)[S-].CCCC=NCCOC(=S)[S-].[Zn+2] | > 100 | 56.2 |  |
| CN(C)c1ccc(C=C(C(=O)c2ccccc2)C(=O)c2ccccc2)cc1 | > 10.7 | > 10.7 |  |
| COCCNC1CCC(=O)c2[nH]c3ccccc3c21 (stereo not drawn) | > 200 | > 200 |  |
| O=C1c2c(c3c4ccccc4[nH]c3c3[nH]c4ccccc4c23)C(=O)N1Cc1ccccc1 | > 148 | 10.2 |  |
| O=C1C(=O)C(CCCO)(CCCO)CCCCCCCCC1(CCCO)CCCO | > 200 | 102 |  |
| O=C(CCCC(=O)N/N=C/c1ccc(O)c(O)c1)N/N=C\c1ccc(O)c(O)c1 | > 200 | 29.5 |  |
| COc1ccc(C(F)(F)F)cc1NC(=O)O/N=C(/Cl)C(C)C | > 20 | 3.72 |  |
| COC(=O)C(Cc1nc2ccccc2[nH]c1=O)C(=O)C(=O)Nc1cc(C(F)(F)F)ccc1Cl (stereo not drawn) | > 74.1 | 7.41 |  |
| Cc1ncc2c(n1)CCC1=C2OS(=O)(=O)CC1N(C)C (stereo not drawn) | > 200 | 38.9 |  |
| COc1ccc2c(c1)[n+]([O-])c(-c1ccc([N+](=O)[O-])cc1)c(N)[n+]2[O-] |  |  | inactive |
| CCOC(=O)C(C)(c1cn(C)c2ccccc12)c1cn(C)c2ccccc12 |  |  | inactive |

| SMILES | EC50 [µM] | IC50 [µM] | outcome |
| --- | --- | --- | --- |
| C=C1CN(S(=O)(=O)c2ccc(C)cc2)CCCN(Cc2ccsc2)CCCN(S(=O)(=O)c2ccc(C)cc2)C1 | > 200 | 52.5 |  |
| C=CCCCCC1CCC2CCC(CCCC)N12 (stereo not drawn) | > 525 | > 525 |  |
| OC[C@@H]1C[C@H](F)[C@H](n2cnc3c(Cl)ncnc32)O1 | > 575 | 26.3 |  |
| O=C(O)/C=C/C(=O)NNC(=O)/C=C/C(=O)O | > 1100 | 692 |  |
| Cc1[nH]nc2c1NC(=O)OC2C (stereo not drawn) | > 1480 | 1200 |  |
| CC(C)C(NC(=O)OC(C)(C)C)C(=O)N(C)C(Cc1ccccc1)C(=O)N(C)C(C(=O)N(C)C(C(=O)OCc1ccccc1)C(C)C)C(C)C (stereo not drawn) (Boc-V[NMeF][NMeV][NMeV]-OBn; configuration not given here) | > 200 | > 200 |  |
| O=c1c(O)c(O)c1=O |  |  | inactive |
| O=S(=O)(O)c1ccc(O)c(N=Nc2ccc(/C=C/c3ccc(N=Nc4cc(S(=O)(=O)O)ccc4O)cc3S(=O)(=O)O)c(S(=O)(=O)O)c2)c1 | > 200 | 126 |  |
| O=c1[nH]c2ccccc2c(=O)c2cc3ccccc3cc12 | > 200 | > 200 |  |
| CCN(CC)CCOC(=O)c1ccc(NC(=O)CN(CC)CC)cc1 | > 200 | > 200 |  |
| COc1ccc(CCNC(=S)N/C=C(\C#N)S(=O)(=O)c2ccc(C)cc2)cc1OC | > 200 | > 200 |  |
| O=C1Nc2cc([N+](=O)[O-])ccc2NC1/C(=N\Nc1ccccc1)C(O)c1cccc([N+](=O)[O-])c1 (stereo not drawn) | > 417 | 47.9 |  |
| CC(=O)OCc1cccc(O)c1C(=O)CCC=C(C)C | > 200 | 148 |  |
| Brc1c(C#CCC2CCCCC2)ccc(C#CCC2CCCCC2)c1Br | > 100 | > 100 |  |
| CNc1ccc(/C=C/c2ccnc3ccccc23)cc1 | > 200 | 6.31 |  |
| COc1ccc(C2c3c(-c4ccccc4)nn(-c4ccccc4)c3Oc3ncn(N)c(=N)c32)cc1OC (stereo not drawn) | > 200 | 30.2 |  |
| Cc1cccc2c1c(=O)c1c(O)cc(O)cc1n2C | > 200 | > 200 |  |
| CCn1c2c(c3ccccc3c1=O)C(=O)c1ccccc1-2 | > 26.3 | > 26.3 |  |
| C/C(CC(=O)Nc1ccc(NC(=O)/C(C)=N/NS(=O)(=O)c2ccc(C)cc2)cc1)=N\NS(=O)(=O)c1ccc(C)cc1 | > 158 | > 158 |  |
| Cc1c(C#N)c(=N)oc2ccccc12 | > 200 | 115 |  |
| CCOC(=O)CC(=O)Sc1ccccc1 | > 251 | 20.9 |  |
| CCCNC1=C(Cl)C(=O)c2ccccc2C1=O | > 145 | 26.3 |  |

| SMILES | EC50 [µM] | IC50 [µM] | outcome |
| --- | --- | --- | --- |
| Cc1ccc(C)c(NC(=O)C(=O)Nn2c(=S)[nH]c3ccccc3c2=O)c1 | > 501 | 191 |  |
| NC(N)=NCCCC(Nc1c2ccccc2nc2ccccc12)C(=O)O (stereo not drawn) |  |  | inactive |
| CCOC(=O)c1ccc(CSc2ccc(N)cc2)cc1 | > 457 | 240 |  |
| CCCC(Sc1ccccc1)P(=O)(c1ccccc1)c1ccccc1 (stereo not drawn) |  |  | inactive |
| CCOc1ccc(Nc2nc3c(s2)C(=O)c2ccccc2C3=O)cc1 | > 110 | 9.55 |  |
| CCC12CCC[C@@]13C=C[C@H](O3)C(C)(C)C2=O (stereo partly drawn) |  |  | inactive |
| COc1ccc(OC)c2c1C1CCC(=O)N1CN2C(C)=O (stereo not drawn) |  |  | inactive |
| CCC(=O)OC1C(OC2C(C)C(OC3CC(C)(OC)C(O)C(C)O3)C(C)C(=O)OC(CC)C(C)(O)C(O)C(C)C(=O)C(C)CC2(C)O)OC(C)CC1N(C)C (stereo not drawn) | > 200 | 70.8 |  |
| COc1ccc(-n2c(-c3ccccc3)cc(-c3cccs3)c2-c2cccs2)cc1 | > 200 | > 200 |  |
| COc1ccc(C2C(C#N)=C(S)N(C3OC(CO)C(O)C(O)C3O)C(C)=C2C(C)=O)cc1 (stereo not drawn) | > 200 | 89.1 |  |
| CC1C2CC(CC23OCC(CCl)O3)C1(C)C (stereo not drawn) | > 200 | > 200 |  |
| CN(C)CCCn1c(-c2ccc(Br)cc2)csc1=Nc1ccccc1 | > 200 | 9.77 |  |
| CN(C)N(CCO)CCO | > 200 | > 200 |  |
| Cc1ccc(/C=C2\N=C(N3CCOCC3)NC2=O)cc1 | > 200 | > 200 |  |
| O=C(C1=CCC2(CC1)OCCO2)N(Cc1ccccc1)c1ccccc1I | > 200 | 32.4 |  |
| COc1ccc(C2(O)CCCCC2)cc1 | > 66.1 | > 66.1 |  |
| C/C(CC(=O)Nc1cccc([N+](=O)[O-])c1)=N\NC(=O)CC#N | > 832 | 447 |  |
| CC(C)(C)C1CCC2c3c([nH]c4ccccc34)C3C(=O)N(c4ccccc4)C(=O)C3C2C1 (stereo not drawn) |  |  | inactive |
| CSc1cc(-c2ccc(Cl)cc2)s[s+]1 | 50.1 | 115 |  |
